In ChEMBL document CHEMBL1143024, “Clavaminols A-F, novel cytotoxic 2-amino-3-alkanols from the ascidian Clavelina phlegraea” (Bioorg Med Chem, 2007):
≈ marks a conversion by molar mass, not a printed value. Calls of active or inactive are those of the source. No cut-off for these calls is given here.

Tests used:
AGS = experiment: Cytotoxicity against human AGS cells after 24 hrs by calcein uptake assay; assay type: functional, cell-based
Jurkat [1] = experiment: Induction of apoptosis in human Jurkat cells assessed as increase in hypodiploid cells at 10 ug/mL after 18 hrs by TUNEL method; assay type: functional
T47D = experiment: Cytotoxicity against human T47D cells after 24 hrs by calcein uptake assay; assay type: functional, cell-based
A549 = experiment: Cytotoxicity against human A549 cells after 24 hrs by calcein uptake assay; assay type: functional, cell-based
Jurkat [2] = experiment: Cell cycle arrest in human Jurkat cells assessed as accumulation at G1/S phase at 10 ug/mL after 18 hrs […]; assay type: functional, cell-based

SMILES: CCCCCCCCC[C@H](O)[C@@H](C)NC(C)=O
- Activity (AGS): inactive

SMILES: CCCCCCCCC[C@H](OC(C)=O)[C@@H](C)N
- Activity (AGS): inactive

SMILES: CCCCCCCCC[C@H](O)[C@@H](C)N [CLAVAMINOL A]
- Activity (Jurkat [1]): 44.6%
- IC50 (AGS): 5 µg/mL (≈ 24.8 µM)
- Activity (T47D): Active
- Activity (A549): Active
- Activity (Jurkat [2]): Active
